{"source": "patent US20080262097A1", "about": "“Formulations” (priority 2005, published 2008)", "key": {"P. acnes PRP-010": {"system": "P. acnes PRP-010", "test": "MBC assay", "type": "cell-based, Propionibacterium acnes", "details": "Cutibacterium acnes, PRP010; P. acnes PRP-010 (resistance MLSK)", "method": "Other propionibacterial strains were also tested, as described in Example 8 below. These included certain antibiotic resistant propionibacteria, such as the two P. acnes strains PRP-010 and PRP-053 which are resistant respectively to macrolides-lincosamides-streptogramins-ketolides (MLSK) and to macrolides-lincosamides-streptogramins (MLS) and tetracycline—in other words, PRP-010 is resistant to erythromycin and clindamycin, and […] to erythromycin, clindamycin and tetracycline.\n(§1) The Propionibacterium spp organisms were cultured and maintained on Wilkins-Chalgren Anaerobe Medium (agar and broth) at pH 6.0; cultures were incubated anaerobically at 37° C. for 72 hours.\nThis assay, normally carried out after an MIC assay, determines the minimum concentration of a compound that is lethal to the micro-organism being tested.\nThese samples were then individually sub-cultured on non-selective agar medium, under the incubation conditions described above. Following incubation they were examined visually for bacterial growth."}, "[1]": {"system": "Staphylococcus warneri ATCC 27836", "test": "Disc diffusion assay (DDA)", "type": "cell-based", "details": "zone diameter, 200 μg per disc", "method": "(§2) The staphylococci and enterococci were cultured and maintained on Mueller-Hinton Medium (agar and broth) at pH 7.2; they were incubated aerobically at 37° C. for 24 hours.\n(§3) A sterile paper disc was impregnated with a sample of the test compound and a minimum of 30 minutes allowed for the solvents to evaporate as far as possible. The disc was then placed on an agar plate onto which the test micro-organism had been inoculated. The plate was then incubated under the conditions described above, following which it was examined visually for signs of bacterial growth. If the test compound had antimicrobial activity, a circular zone of no growth would be obtained around the disc. The diameter of this zone of “inhibition” was measured using a ProtoCOL™ automated zone sizer (Synbiosis, Cambridge, UK). In general, a greater diameter and/or area of the zone of inhibition indicates a greater antimicrobial activity in the relevant test compound, although other factors such as test compound mobility through the agar gel may also influence the result.\n(§4) The area of the zone of inhibition was calculated from the measured zone diameter (D) using the formula π(D/2)^2."}, "[2]": {"system": "S. epidermidis (NCTC 11047)", "test": "Disc diffusion assay (DDA)", "type": "cell-based", "details": "zone diameter, 200 μg per disc", "method": "as §2, §3, §4"}, "[3]": {"system": "Staphylococcus xylosus ATCC 29971", "test": "Disc diffusion assay (DDA)", "type": "cell-based", "details": "zone diameter, 200 μg per disc", "method": "as §2, §3, §4"}, "[4]": {"system": "Staphylococcus cohnii ATCC 29974", "test": "Disc diffusion assay (DDA)", "type": "cell-based", "details": "zone diameter, 200 μg per disc", "method": "as §2, §3, §4"}, "[5]": {"system": "Staphylococcus capitis ATCC 27840", "test": "Disc diffusion assay (DDA)", "type": "cell-based", "details": "zone diameter, 200 μg per disc", "method": "as §2, §3, §4"}, "[6]": {"system": "Staphylococcus simulans ATCC 27848", "test": "Disc diffusion assay (DDA)", "type": "cell-based", "details": "zone diameter, 200 μg per disc", "method": "as §2, §3, §4"}, "[7]": {"system": "S. saprophyticus NCTC 7292", "test": "Disc diffusion assay (DDA)", "type": "cell-based", "details": "zone diameter, 200 μg per disc", "method": "as §2, §3, §4"}, "[8]": {"system": "Staphylococcus auricularis ATCC 33753", "test": "Disc diffusion assay (DDA)", "type": "cell-based", "details": "zone diameter, 200 μg per disc", "method": "as §2, §3, §4"}, "[9]": {"system": "Staphylococcus aureus ATCC 12600", "test": "Disc diffusion assay (DDA)", "type": "cell-based", "details": "zone diameter, 200 μg per disc", "method": "as §2, §3, §4"}, "[10]": {"system": "Staphylococcus haemolyticus ATCC 29970", "test": "Disc diffusion assay (DDA)", "type": "cell-based", "details": "zone diameter, 200 μg per disc", "method": "as §2, §3, §4"}, "[11]": {"system": "Staphylococcus hominis ATCC 27844", "test": "Disc diffusion assay (DDA)", "type": "cell-based", "details": "zone diameter, 200 μg per disc", "method": "as §2, §3, §4"}, "S. aureus ATCC 29213": {"system": "S. aureus ATCC 29213", "test": "Time-to-kill (TTK) assay", "type": "cell-based, Staphylococcus aureus", "details": "BP 125 μg/ml and/or TBHQ […]; for CFU/ml 0.5: 0.5 hours; for CFU/ml 1.0: 1 hour", "method": "This quantitative assay was designed to assess the time taken for a test compound to kill a test micro-organism.\nSamples from an incubated liquid culture containing the relevant test compound and micro-organism were taken at timed intervals and inoculated onto agar plates. The plates were then incubated as described above and subsequently examined visually for growth. The numbers of viable microbial colonies on the plates were counted and converted to colony-forming units per ml (cfu/ml) using the appropriate dilution factor. By way of example, a colony count of 25 colonies from an agar plate carrying 100 μl of inoculum which had been serially diluted to 10^−6 would yield a viable cell count of 25×10 (to correct to 1 ml)×106 which would be equivalent to 2.5×10^8 cfu/ml. These cfu values were then converted into log10 values and plotted graphically against time of sample removal.\nAt each time point, samples were assessed in triplicate; the final cfu/ml value was an average (mean) of the three readings.\nAn appropriate concentration of test compound(s) for use in this assay was determined based on previously conducted MIC/FIC assays.\nThe TTK assay can provide another measure of synergy, as combinations of compounds may interact to kill test micro-organisms more quickly than the individual compounds alone. This would be indicated by a steeper decline in viable bacterial cell counts as compared to those observed for the individual compounds alone.\nTTK assays were then conducted, as described above, on samples of BP, TBHQ and a BP/TBHQ mixture, using S. aureus ATCC 29213 as the test organism. The solvents used were DMSO for the BP and ethanol for the TBHQ. The results are shown in Table 3. cfu values were measured at time 0, 0.5 hours and 1 hour."}, "P. granulosum PRP-044": {"system": "P. granulosum PRP-044", "test": "MIC assay", "type": "cell-based", "details": "P. granulosum PRP-044 (resistance MLS)", "method": "as §1\n(§5) This is a standard international method for quantitatively assessing the antimicrobial activity of a compound in a liquid medium. The method used a 96-well microtitre plate, capable of holding about 200 μl of liquid per well. […] The culture media were as described above for the relevant test organisms.\n(§6) The wells were inoculated with a liquid suspension of freshly grown micro-organism and incubated under the conditions described above. After incubation, the microtitre plate was examined visually (with the aid of a light box) for cell pellets in and/or opaque wells, which would indicate microbial growth. The MIC value was recorded as the lowest concentration of test compound required to inhibit microbial growth, ie, the lowest concentration for which the liquid in the well remained clear.\n(§7) The assays were conducted in duplicate and included both negative (culture medium only) and positive (culture medium, diluting solvent and inoculum) controls."}, "P. avidum ATCC 25577": {"system": "P. avidum ATCC 25577", "test": "MIC assay", "type": "cell-based", "details": "Cutibacterium avidum, ATCC25577; P. avidum ATCC 25577 (resistance None)", "method": "as §1, §5, §6, §7"}, "P. granulosum PRP-055": {"system": "P. granulosum PRP-055", "test": "MIC assay", "type": "cell-based", "details": "P. granulosum PRP-055 (resistance None)", "method": "as §1, §5, §6, §7"}, "P. granulosum PRP-005": {"system": "P. granulosum PRP-005", "test": "MIC assay", "type": "cell-based", "details": "P. granulosum PRP-005 (resistance MLSK)", "method": "as §1, §5, §6, §7"}}}
{"smiles": "O=C(OOC(=O)c1ccccc1)c1ccccc1", "note": "[benzoyl peroxide]", "values": [{"measurement": "MBC", "setting": "P. acnes PRP-010", "value": 31.2, "unit": "µg/mL"}, {"measurement": "DDA", "setting": "[1]", "value": 12.04, "unit": "mm"}, {"measurement": "DDA", "setting": "[2]", "value": 10.65, "unit": "mm"}, {"measurement": "DDA", "setting": "[3]", "value": 10.99, "unit": "mm"}, {"measurement": "DDA", "setting": "[4]", "value": 11.51, "unit": "mm"}, {"measurement": "DDA", "setting": "[5]", "value": 12.46, "unit": "mm"}, {"measurement": "DDA", "setting": "[6]", "value": 9.94, "unit": "mm"}, {"measurement": "DDA", "setting": "[7]", "value": 11.38, "unit": "mm"}, {"measurement": "DDA", "setting": "[8]", "value": 21.56, "unit": "mm"}, {"measurement": "DDA", "setting": "[9]", "value": 11.99, "unit": "mm"}, {"measurement": "DDA", "setting": "[10]", "value": 11.10, "unit": "mm"}, {"measurement": "DDA", "setting": "[11]", "value": 11.83, "unit": "mm"}, {"measurement": "Time to kill", "setting": "S. aureus ATCC 29213", "value": ">1", "unit": "h"}, {"measurement": "CFU/ml 0.5", "setting": "S. aureus ATCC 29213", "value": "6.20 × 10^5 CFU/ml"}, {"measurement": "CFU/ml 1.0", "setting": "S. aureus ATCC 29213", "value": "3.67 × 10^4 CFU/ml"}, {"measurement": "CFU/ml t = 0", "setting": "S. aureus ATCC 29213", "value": "7.63 × 10^5 CFU/ml"}, {"measurement": "MIC", "setting": "P. granulosum PRP-044", "value": 31.2, "unit": "µg/mL"}, {"measurement": "MIC", "setting": "P. avidum ATCC 25577", "value": 31.2, "unit": "µg/mL"}, {"measurement": "MIC", "setting": "P. granulosum PRP-055", "value": 15.6, "unit": "µg/mL"}, {"measurement": "MIC", "setting": "P. granulosum PRP-005", "value": 15.6, "unit": "µg/mL"}]}
{"smiles": "CC(C)(C)c1cc(O)ccc1O", "note": "[TBHQ, t-butyl hydroquinone]", "values": [{"measurement": "MBC", "setting": "P. acnes PRP-010", "value": 15.6, "unit": "µg/mL"}, {"measurement": "DDA", "setting": "[1]", "value": 54.43, "unit": "mm"}, {"measurement": "DDA", "setting": "[2]", "value": 57.34, "unit": "mm"}, {"measurement": "DDA", "setting": "[3]", "value": 49.72, "unit": "mm"}, {"measurement": "DDA", "setting": "[4]", "value": 60.40, "unit": "mm"}, {"measurement": "DDA", "setting": "[5]", "value": 73.90, "unit": "mm"}, {"measurement": "DDA", "setting": "[6]", "value": 53.07, "unit": "mm"}, {"measurement": "DDA", "setting": "[7]", "value": 41.67, "unit": "mm"}, {"measurement": "DDA", "setting": "[8]", "value": 80.18, "unit": "mm"}, {"measurement": "DDA", "setting": "[9]", "value": 49.24, "unit": "mm"}, {"measurement": "DDA", "setting": "[10]", "value": 51.08, "unit": "mm"}, {"measurement": "DDA", "setting": "[11]", "value": 64.59, "unit": "mm"}, {"measurement": "Time to kill", "setting": "S. aureus ATCC 29213", "value": ">1", "unit": "h"}, {"measurement": "CFU/ml 0.5", "setting": "S. aureus ATCC 29213", "value": "7.40 × 10^5 CFU/ml"}, {"measurement": "CFU/ml 1.0", "setting": "S. aureus ATCC 29213", "value": "8.47 × 10^5 CFU/ml"}, {"measurement": "CFU/ml t = 0", "setting": "S. aureus ATCC 29213", "value": "7.63 × 10^5 CFU/ml"}, {"measurement": "MIC", "setting": "P. granulosum PRP-044", "value": 15.6, "unit": "µg/mL"}, {"measurement": "MIC", "setting": "P. avidum ATCC 25577", "value": 3.9, "unit": "µg/mL"}, {"measurement": "MIC", "setting": "P. granulosum PRP-055", "value": 3.9, "unit": "µg/mL"}, {"measurement": "MIC", "setting": "P. granulosum PRP-005", "value": 62.5, "unit": "µg/mL"}]}
